Tests used:
Assay in all cases: relative viability (nuclei count vs DMSO), 5 days (fraction); higher = more cells survive
Motesanib + Palbociclib = compound: CC1(C)CNc2cc(NC(=O)c3cccnc3NCc3ccncc3)ccc21 [Motesanib] + CC(=O)c1c(C)c2cnc(Nc3ccc(N4CCNCC4)cn3)nc2n(C2CCCC2)c1=O [Palbociclib] (partner 0.5 µM)
In short: (§1)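 For relative viability, nuclei counts in treated wells were divided by those in vehicle wells. Lung cancer cell lines had been pin-tool dosed in 1536-well plates the day after seeding and cultured for 5 days, then fixed and stained in one step (final 0.05% Triton X-100, 1% formaldehyde, 1 ug/ml Hoechst) and imaged at 4×. Doses were one drug alone or a fixed anchor-drug dose plus five library-drug doses (not always all listed) in √10 steps, and values are duplicate-plate medians.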

[1] = compound: C[C@@]1(C(=O)Nc2ccc(F)nc2)CCCN1c1nc(Nc2cc(C3CC3)n[nH]2)c2cccn2n1 + COc1cc2c(Oc3ccc(NC(=O)C4(C(=O)Nc5ccc(F)cc5)CC4)cc3F)ccnc2cc1OCCCN1CCOCC1 [Foretinib] (partner 0.25 µM)
In short: as §1

[2] = compound: C[C@@]1(C(=O)Nc2ccc(F)nc2)CCCN1c1nc(Nc2cc(C3CC3)n[nH]2)c2cccn2n1 + Cc1nc(Nc2ncc(C(=O)Nc3c(C)cccc3Cl)s2)cc(N2CCN(CCO)CC2)n1 [Dasatinib] (partner 0.075 µM)
In short: as §1

[3] = compound: C[C@@]1(C(=O)Nc2ccc(F)nc2)CCCN1c1nc(Nc2cc(C3CC3)n[nH]2)c2cccn2n1 + Nc1nc2[nH]cc(CCc3ccc(C(=O)N[C@@H](CCC(=O)O)C(=O)O)cc3)c2c(=O)[nH]1 [Pemetrexed] (partner 0.2 µM)
In short: as §1

UMC-11
relative viability (Motesanib + Palbociclib; first compound 0.01 µM): 0.317 | relative viability (Motesanib + Palbociclib; first compound 0.03162 µM): 0.302 | relative viability (Motesanib + Palbociclib; first compound 0.1 µM): 0.314 | relative viability (Motesanib + Palbociclib; first compound 0.3162 µM): 0.394 | relative viability (Motesanib + Palbociclib; first compound 1 µM): 0.347 | relative viability ([1]; first compound 0.04 µM): 1.09 | relative viability ([1]; first compound 0.1265 µM): 1.12 | relative viability ([1]; first compound 0.4 µM): 0.901 | relative viability ([1]; first compound 1.265 µM): 0.299 | relative viability ([2]; first compound 0.04 µM): 0.478 | relative viability ([2]; first compound 0.1265 µM): 0.471 | relative viability ([2]; first compound 0.4 µM): 0.399 | relative viability ([2]; first compound 1.265 µM): 0.278 | relative viability ([3]; first compound 0.04 µM): 0.773 | relative viability ([3]; first compound 0.1265 µM): 0.827 | relative viability ([3]; first compound 0.4 µM): 0.705 | relative viability ([3]; first compound 1.265 µM): 0.722

From the supplement of paper PMC10307832
